One data set has as its system TGF-β. As to the kind of experiment: TGF-β gene expression in eWAT. It counts as in vivo. The note with it: HFD-fed mice; FIG. 4C. The source says: Since obesity has been linked to low-grade inflammation in the adipose tissue, we consequently observed increased TGF-β expression in the epididymal fat pads of the HFD-fed mice.
The nature of data set [1]: Fat pad weights at euthanasia (body composition). The note with it: HFD-fed mice at euthanasia. It counts as in vivo. The source says:
In agreement with effects of Compound 14-3 seen in the above examples, favorable changes in the body composition of Compound 14-3-treated and HFD-fed mice were also observed at the time of euthanasia through gross examination.
The former anatomical site represents visceral fat depos, while the latter belongs to subcutaneous fat depo from the perspective of human health. Both of these changes were considered very substantial and beneficial in the anti-obesity effect profile of the compound of the invention.

Data set [2] in a line: Oral glucose tolerance test (OGTT). It counts as in vivo. The note with it: HFD-fed mice, 5th week of treatment, vs vehicle. As to the method: The described beneficial changes in body composition improved all aspects of the metabolic syndrome, including the underlying insulin resistance. Therefore, to fully characterize this animal model, we also assessed insulin signaling on live animals on the 5th week of Compound 14-3-treatment by conducting oral glucose tolerance test (OGTT, FIGS. 9A-C) and intraperitoneal insulin tolerance test (ITT, FIGS. 9D-E).
Both the OGTT and ITT tests were carried out on mice that have been starved for 6 hours before the procedure to eliminate the effect of the last meal on the blood glucose level. In both tests, we measured fasting glucose levels 30 min before the start of the assay to define baseline conditions. In the OGTT assay, the mice had been gavaged with 2 g/kg glucose, dissolved in water. After administration of the glucose, blood glucose level was measured via tail vein nicking using a commercially available glucometer. The obtained data was plotted against time (FIG. 9A) and the area under curve (AUC) calculations were carried out (FIG. 9B). Additionally, the blood glucose level measured at 120 min after gavage was used to describe the overall glucose tolerance of the mice (FIG. 9C).

Data set [3] has as its system genes involved in lipid transport and degradation, beta-oxidation, de novo lipogenesis, and insulin sensitivity (RORA, ACADM, ACOX1, MLYCD, PEPCK). The data set is described as follows: Gene expression in visceral fat (eWAT). Format: in vivo. The note with it: HFD-fed mice. The source says: To get a more detailed insight into the metabolic changes caused by the Compound 14-3 treatment in the visceral fat (eWAT), the expression of genes involved in lipid transport and degradation, beta-oxidation, de novo lipogenesis, and insulin sensitivity were examined.
Acyl-Coenzyme A dehydrogenase, C-4 to C-12 straight chain (ACADM, FIG. 6B) is known to be important for the degradation of medium chain fatty acids.
Similarly, malonyl CoA decarboxylase (MLYCD, FIG. 6D) has been induced by the Compound 14-3 treatment. This event is linked to decreased malonyl CoA synthesis and the suppression of de novo lipogenesis by Compound 14-3.

The subject of data set [4] is intestinal fat absorption. The data set is described as follows: Fecal triglyceride content (biochemical kit) in HFD-fed mice. It counts as in vivo. The note with it: 5th week of treatment, vs vehicle, FIG. 2A. How it is done:
Referring to FIG. 2A, the fecal triglyceride content was assessed using a standard biochemical kit (Biovision, Mountain View, CA). Fecal samples were collected on the 5th week of the treatment over the course of three days. The fecal triglyceride content was normalized to fecal mass. […] Therefore, this mechanism cannot explain the observed significant weight loss in the drug-treated mice.

The nature of data set [5]: Body weight, food/water intake and adverse effects in modified high-fat diet (HFD) obese mice. Format: in vivo, C57B1/6J mice. The source says:
In order to assess the in vivo efficacy of Compound 14-3, a preferred embodiment of the compound of the invention, in treating and ameliorating obesity and related diseases like the metabolic syndrome, a previously used modified high-fat diet (HFD) was employed to induce obesity and severe fatty liver disease in mice (Derdak et al. J of Hepatology 2013; 58(4):785-91).
Five-week-old male, C57B1/6J mice (12-18 per group, Jackson Laboratory, Bar Harbor, ME) were fed ad libitum with a modified high-fat or control diet (Bioserv, Frenchtown, NJ) for 15 weeks. […] We had verified the efficacy of this diet to induce obesity in various pilot studies. At the end of the 15-week long feeding regimen, this diet caused substantial weight gain in these mice.
After 15 weeks on the modified HFD, the mice were put on a Compound 14-3 (or control vehicle) dosing regimen, in which the introductory 5 mg/kg (p.o., t.i.w. for the first 3 weeks) dose was followed by the administration of 10 mg/kg (p.o., t.i.w. for an additional 5 weeks) therapeutic dose. During the course of the drug treatment, the animals were monitored daily for changes in body weight, food/water intake, and any adverse effects.

The mark [6] stands for this setting: mice, 5 then 10 mg/kg p.o. t.i.w.

In the case of `CCN(CC)CCNC(=O)c1c(C)[nH]c(/C=C2\C(=O)Nc3ccc(-c4csc(-c5ccccc5)n4)cc32)c1C` [Compound 14-3], the “TGF-β abundance (gene expression) in eWAT” value in the data set with TGF-β is listed as “decreased”. In data set [1] (FIG. 3A), the “epididymal fat pad weights” value is “markedly decreased”. The “epididymal fat/body weight ratio” value in data set [1] (FIG. 3B) was “markedly decreased”. The “unilateral (inguinal) fat pad weights” value in data set [1] (FIG. 3C) is listed as “markedly decreased”. Moreover, the “inguinal fat/body weight ratio” value in data set [1] (FIG. 3D) is recorded as “markedly decreased”. The “glucose tolerance (OGTT)” value in data set [2] (6 h starved, 2 g/kg glucose gavage, FIG. 9A) is “markedly improved”. Besides, the “area under curve during OGTT” value in data set [2] (FIG. 9B) was “smaller”. Further, the “blood glucose level at 120 min during OGTT” value in data set [2] (FIG. 9C) is reported as “decreased”. For the same molecule, the “RORA expression in eWAT” value in data set [3] (FIG. 6A) is reported as “significantly increased”. Besides, in data set [3] (FIG. 6B), the “ACADM gene expression in eWAT” value is given as “Increased”. The “ACOX1 expression in eWAT” value in data set [3] (FIG. 6C) was “increased”. Further, in data set [3] (FIG. 6D), the “MLYCD expression in eWAT” value is listed as “induced”. Further, the “PEPCK gene expression in eWAT” value in data set [3] (FIG. 6E) is “comparable to that of the control-fed mice”. Also, in data set [4], the “fecal triglyceride content normalized to fecal mass” value was “little difference”. In addition, in data set [5] (HFD-fed mice during treatment, FIG. 1C), the “daily normalized caloric (food) intake” value is listed as “not linked to decreased food intake”. Moreover, the “daily normalized water intake” value in data set [5] (HFD-fed mice during treatment, FIG. 1D) was “not linked to decreased”. Further, the “change in body weight during treatment” value in data set [5] (HFD-fed mice, 5 mg/kg p.o. t.i.w. 3 weeks then 10 mg/kg p.o. t.i.w. 5 weeks, FIG. 1A) is on record as “not only prevented additional weight gain in the mice on HFD, but also triggered a gradual weight loss”. Also, the “difference in body weight vs control-vehicle-treated mice on HFD at the time of euthanasia” value in data set [5] (HFD-fed mice, 5 then 10 mg/kg p.o. t.i.w., 8 weeks, FIG. 1B) is roughly 20%. In data set [5] (setting [6]), the behaviors or activities entry was “No changes in behaviors or activities were observed” and the side effects result is recorded as “temporary, self-resolving, mild diarrhea seen in a couple of mice at the initiation of drug treatment”.

The record behind these values is patent US12390460B2, “Treatment for obesity” (1GLOBE BIOMEDICAL CO., LTD., priority 2018, dated 2025).
